Patent US9181172B2, “Rhein conjugates, preparation method thereof and their uses in producing medicines for treating diabetic nephrosis, intestinal adhesion and osteoarthritis” (priority 2005, dated 2015)

Key:
mice = test: Intestinal propulsion in mice; assay type: in vivo; details: dosage 9 mg/kg, intravenous injection
Method: Fifty mice, male, weighting from 18 to 22 g, were randomly divided into five groups, namely, model control group, domperidone group, rhein sodium group, rhein glucosamine large dose group and low dose group.
Each group has 10 mice respectively. The mice were fasted, but water was not prohibited, and then administered with medicines by intravenous injection. After that, tests were carried on immediately according to the methods in the literature[Xu Shuyun, Methodology in Pharmacological Experiment (the 3rd version): 1313]. The intestinal propulsive rates were calculated, and t test was used for the intergroup comparison.

obese hyperglycemia mice = test: Body weight and blood glucose of obese hyperglycemia mice; assay type: in vivo
Method: 9-week-old obese mice of hyperglycemia were randomly divided into: rhein sodium group, non-treatment group, rosiglitazone group, rhein lysine high-dose group and low-dose group, each group has 6 mice. Kunming mice of the same age were used as the control group, which were fed by conventional feedstuff with free food and water feeding. Rhein lysine conjugates [the dose is 180 mg/kg (0.418 mmol/kg) and 90 mg/kg (0.209 mmol/kg) for intragastric infusion, prepared with distilled water], dose of the rhein sodium group is 130 mg/kg (0.424 mmol/kg), the mixture was dissolved with distilled water, intragastric administration; rosiglitazone group (the dose is 4 mg/kg), the mixture was dissolved with distilled water, intragastric administration, and the rats of the other two groups were administered with the same volume of distilled water, once a day, 12 weeks of administration in succession. The animals' body weight and blood sugar were measured regularly, and statistical analysis was conducted.

[1] = Comparison of metal salts or conjugates hydro-acupuncture (water-carrier) preparation: pH value and clarity; assay type: physicochemical; details: 2.0 mg/ml in water, as dissolved
Method: Proper amount of different rhein or rhein-containing effective part metal salts or conjugates were put into a 10 ml volumetric flask, added with water, shaken and dissolved for constant volume, and then a water-carrier preparation was obtained. Rhein or rhein-containing effective part sodium salts or sylvan preparation are adjusted to the original pH with diluted hydrochloric acid and the results were shown in Table 4.

[2] = baseline of group given ig 4 mg/kg once a day

O=c1[nH]c2ccccc2n1CCCN1CCC(n2c(=O)[nH]c3cc(Cl)ccc32)CC1 [domperidone]
Propulsive rate (mice): 55.42 ± 9.6 %

CN(CCOc1ccc(CC2SC(=O)NC2=O)cc1)c1ccccn1 (stereo not shown) [Rosiglitazone]
Blood glucose prior to administration (obese hyperglycemia mice; [2]): 29.3 ± 4.7 mmol/L | Body weight prior to administration (obese hyperglycemia mice; [2]): 29.3 ± 1.7 g | Blood glucose 6 w after administration (obese hyperglycemia mice; ig 4 mg/kg once a day): 31.1 ± 4.9 mmol/L | Blood glucose 9 w after administration (obese hyperglycemia mice; ig 4 mg/kg once a day): 30.5 ± 4.5 mmol/L | Blood glucose 12 w after administration (obese hyperglycemia mice; ig 4 mg/kg once a day): 27.9 ± 3.8 mmol/L | Body weight 6 w after administration (obese hyperglycemia mice; ig 4 mg/kg once a day): 42.1 ± 1.9 g | Body weight 9 w after administration (obese hyperglycemia mice; ig 4 mg/kg once a day): 48.2 ± 1.5 g | Body weight 12 w after administration (obese hyperglycemia mice; ig 4 mg/kg once a day): 50.1 ± 1.8 g

CNC[C@H](O)[C@@H](O)[C@H](O)[C@H](O)CO.O=C(O)c1cc(O)c2c(c1)C(=O)c1cccc(O)c1C2=O [rhein meglumine conjugate, Rhein Meglumine Conjugate]
PH value [1]: 6-7 | clarity [1]: clear

C[N+](C)(C)CC(O)CC(=O)[O-].O=C(O)c1cc(O)c2c(c1)C(=O)c1cccc(O)c1C2=O [rhein carnitine conjugate, Rhein Carnitine Conjugate]
PH value [1]: 6-7 | clarity [1]: clear
